We go through five compounds from paper PMC11187542, “Identification of fragments targeting SMYD3 using highly sensitive kinetic and multiplexed biosensor-based screening” (RSC Medicinal Chemistry, 2024).

Each structure is given as a SMILES string.

The target of assay [1] is T1, SMYD3 in complex with active site-specific tight-binding inhibitor EPZ031686 (Homo sapiens, UniProt Q9H7B4).
T1 construct: Full length recombinant SMYD3 was produced as previously reported; made in house; host or cells: E. coli BL21(DE3), in some cases Rosetta 2
T1 sequence (Q9H7B4 1-428): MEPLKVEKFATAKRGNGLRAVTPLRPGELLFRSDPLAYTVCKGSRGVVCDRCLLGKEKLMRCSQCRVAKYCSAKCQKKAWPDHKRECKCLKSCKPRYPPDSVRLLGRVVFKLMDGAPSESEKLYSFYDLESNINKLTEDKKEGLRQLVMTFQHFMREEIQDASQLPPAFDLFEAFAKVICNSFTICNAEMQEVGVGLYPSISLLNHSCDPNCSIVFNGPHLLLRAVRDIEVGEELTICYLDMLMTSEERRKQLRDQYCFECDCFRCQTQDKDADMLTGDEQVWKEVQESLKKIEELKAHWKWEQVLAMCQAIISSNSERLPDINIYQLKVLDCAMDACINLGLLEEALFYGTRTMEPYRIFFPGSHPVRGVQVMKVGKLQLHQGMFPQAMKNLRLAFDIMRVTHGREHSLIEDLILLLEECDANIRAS
The assay is described as follows: GCI biosensor kinetic screening, active site blocked SMYD3 surface. From the text:
(§1) A multiplexed screening assay was set up with three different SMYD3 surfaces and a blank reference surface in flow channels 1–4 (FC1–FC4) (Fig. 2a), as described previously.[5] The apo SMYD3 surface detected fragments interacting anywhere on SMYD3, while a SMYD3 surface blocked by active site-specific tight-binding inhibitor EPZ031686 detected compounds binding elsewhere. The denatured surface served as a reference, detecting fragments binding to unfolded proteins, also potentially present to a significant degree in the other two surfaces.
(§2) The library was screened using the approach described in Fig. 1, i.e. injection of fragments at 250 μM for increasing durations of time in a single cycle, using a flow rate of 100 μL min^−1, data acquisition set to 40 Hz and with an association time of 5 s and dissociation of 20 s. Each fragment was addressed to all four channels and interactions with the native and blocked surfaces compared. The experimental conditions were chosen to ensure that the assay could reliably characterize the fast and transient interactions expected from typical fragments.
(§3) The kinetic screening of 1056 compounds was successfully completed in 72 hours. […] Hits were identified with full kinetic information using dissociation phases.
(§4) All interaction kinetic experiments were conducted with a GCI–flow-based biosensor (WAVEdelta, Creoptix AG/Malvern Panalytical) and PCH WAVEchip (Creoptix AG/Malvern Panalytical) sensor chips. The sensor chips were conditioned using injections of borate buffer (10 mM sodium tetraborate pH 8.5, 1 M NaCl). The running buffer composition, if not otherwise stated, was TBS buffer (50 mM Tris, 150 mM NaCl, 0.5 mM TCEP, 0.05% Tween 20, 1% DMSO, pH 8). SMYD3 was diluted to the desired concentration in 10 mM bis-Tris (pH 7.0) and amine coupled to the sensor surface of the PCH sensor chip. The sensor chip was functionalized at 25 °C by immobilising SMYD3 with EDC and NHS (Xantec) using an injection time of 420 s and a flow rate of 10 μL min^−1. The immobilisation levels ranged from 5000 pg mm^−2 to 18 500 pg mm^−2 surface mass to enable analysis of fragments spanning a broad range of affinities. After immobilization, the surface was deactivated with a running buffer containing 50 mM Tris for 420 s. The GCI data referencing and analysis were performed using WAVEcontrol V4.5 (Creoptix AG).
(§5) Kinetic measurements with controls and fragments were performed at 15 °C. Analysis of controls and follow up of hits was done using the multi cycle kinetic (MCK) injection of a concentration series for the same time, with a two-fold serial dilution starting at 250 μM for each compound. Solvent correction was performed ranging from 0.5–1.8% DMSO. Blank samples of the running buffer, 1× TBS (50 mM Tris, 150 mM NaCl, 0.5 mM TCEP, 0.05% Tween 20, 1% DMSO, pH 8), were injected during the measurements every fifth cycle. The experimental design illustrated in Fig. 1 was used for the screening against all four surfaces. The sensorgrams were adjusted to account for solvent correction and blank subtraction. Kinetic fitting was performed with the Direct Kinetics engine of WAVEcontrol software V4.5 (Creoptix AG) with a suitable fitting model.

Assay [2] has as its target T2, SMYD3 (Homo sapiens, UniProt Q9H7B4).
T2 construct: Full length recombinant SMYD3 was produced as previously reported; made in house; host or cells: E. coli BL21(DE3), in some cases Rosetta 2
T2 sequence (Q9H7B4 1-428): T1 sequence (Q9H7B4 1-428)
In words: X-ray crystallography of SMYD3-fragment complexes (co-crystallization and soaking). Particulars: 5 mM fragment co-crystallization or soaking. More on the design: key to XRC: success or failure of crystallization in complex with SMYD3: The success (+) or failure (−) of crystallization in complex with SMYD3; The success (+) or failure (−) of crystallization in complex with SMYD3. The source says:
To identify binding sites and binding modes, the fragment hits (Table 1) were used in both co-crystallization and soaking experiments to obtain SMYD3-fragment co-crystals for X-ray crystallographic analyses. Diffraction data of 1.6–1.9 Å maximum resolution were obtained for four fragments (Fig. 5). For data collection and refinement statistics, see ESI, ^† Table S1.
Four new sites were thus identified.
Polder (F0–Fc) maps (Fig. 5, right) were generated to establish whether the observed electron density features were more likely to represent background noise or to belong to bound fragments. These omit maps are generated upon exclusion of the ligand and surrounding solvent from the model, which aids in visualizing weak densities. […] For fragments FL01507, FL08580 and FL08619, a comparison of the maps obtained after refinement with a bound fragment with maps obtained upon their replacement with either glycerol or acetate, which were present in the crystallization or cryo-protectant solutions, respectively, was required.
8 mg mL^−1 of SMYD3 in storage buffer (TBS buffer containing 2 mM DTT) was pre-incubated for 4–8 hours with 5 mM of a respective fragment hit compound and 10% (v/v) DMSO. Subsequently, 1 μL of this solution was mixed with an equal volume of reservoir solution (100 mM Tris, 100 mM magnesium acetate, 15–17% PEG3350, pH 8.25–8.75) to create the drops for co-crystallization by hanging drop vapour diffusion performed at 20 °C. Needle-like co-crystals nucleated within 12 h of equilibration against the reservoir. In addition, crystals of SMYD3 obtained in ligand-free crystallization setups were soaked with fragment solution prior to freezing. All crystals were cryo-protected via brief immersion in reservoir solution supplemented with 10% (v/v) glycerol.
Diffraction data were collected at beamline ID23-1 of the European Synchrotron Radiation Facility (ESRF, Grenoble, France). Data were indexed, auto-processed, scaled and merged on-site using the implemented data processing routines and software. Fragment-associated electron density features were identified upon data analysis with the Pipedream system (version 1.4.0, Global Phasing Ltd, Cambridge, United Kingdom), which includes data processing with autoPROC,[14] molecular replacement with Phaser,[15] structure refinement with BUSTER version 2.10.4 (Global Phasing Ltd, Cambridge, United Kingdom), automated ligand fitting with Rhofit (Global Phasing Ltd, Cambridge, United Kingdom) and BUSTER post-refinement.[16] Refinement was done with Phenix,[17] and model building with Coot.[18] (F0–Fc) difference density maps for models, from which ligand atoms and surrounding water molecules were removed, were generated using Phenix.

For assay [3], the target named is T2, SMYD3. In words: GCI biosensor multi cycle kinetic confirmation of hits. Format: binding. As to conditions: two-fold serial dilution starting at 250 μM, 15 °C, global fit 1:1 model. As to the method: Selected screening hits were also re-tested by conventional multi cycle kinetic analysis in order to confirm the interactions (some compounds were no longer available). Two variants of the GCI biosensor assay were set up, using different immobilisation levels, to allow the confirmation of hits over a broad range of affinities. […] The kinetics varied for the selected hits (ESI, ^† Fig. S2). All hits were not confirmed (ESI, ^† Fig. S1b).
as §4, §5
FL06268 Superstoichiometric and
Figure 1. Examples of sensorgrams from multicycle kinetic experiments with initial fragment hits and SMYD3. A)
Fragments for which crystal structures of the complex with SMYD3 were obtained. A global fit of the sensorgrams
crystal structures were not obtained. […]

The next assay has as its target T3, SMYD3 (apo, native) (Homo sapiens, UniProt Q9H7B4).
T3 construct: Full length recombinant SMYD3 was produced as previously reported; made in house; host or cells: E. coli BL21(DE3), in some cases Rosetta 2
T3 sequence (Q9H7B4 1-428): T1 sequence (Q9H7B4 1-428)
In words: GCI biosensor kinetic screening, apo SMYD3 surface. Format: binding. As to conditions: for LE (ligand efficiency): LE = −RT ln(KD)/n; for kon at 250 µM: read-out: ka.
Description: as §1
After preparing the sensor surface and immobilising SMYD3, the functionality of the surface was assessed via analysis of interactions with the co-factor product S-adenosyl-homocysteine (SAH). It was used as a control in all experiments, confirming that sensor surfaces were intact. This was done using the novel multiple injection-based experimental design (Fig. 1) at 25 μM, i.e. in a weak binder mode (Fig. 2b).
as §2, §3, §4, §5

The target in assay [4] is T2, SMYD3. On the set-up: method as in PMID 31389685. As to conditions: previously obtained, SPR-based biosensor assay, cited from earlier work.
The mark [5] stands for this setting: initial kinetic screening, fragment 250 μM, 15 °C.
Where [6] appears, read: initial kinetic screening, fragment 250 μM, 15 °C, 1:1 model.
[7] abbreviates: control SAH at 25 μM, multiple injection design.

Take `O=C(O)C(=O)c1ccccc1` [FL08619]: the “LE (ligand efficiency)” value in assay [1] (LE = −RT ln(KD)/n, blocked SMYD3 surface) is given as 0.55 (kcal^-1 mol^-1)/HA. Further, in assay [1] (initial kinetic screening, fragment 250 μM, 15 °C, SMYD3 blocked by EPZ031686), the Kd was 38 µM. The compound further gave a kd in assay [1] (initial kinetic screening, fragment 250 μM, 15 °C, SMYD3 blocked by EPZ031686, 1:1 model) of 1.06 s⁻¹. For the same compound, in assay [1] (initial kinetic screening, fragment 250 μM, 15 °C, SMYD3 blocked by EPZ031686, 1:1 model, read-out: ka), the kon at 250 µM was found to be 27300 M⁻¹ s⁻¹. For the same compound, the “XRC: success or failure of crystallization in complex with SMYD3” value (shortened to “XRC: success or failure”) on SMYD3 [2] was “(+)”. Further, at SMYD3 [3], the “Outcome of multicycle kinetic experiment (sensorgram assessment)” value (“Outcome of multicycle kinetic experiment” for short) is recorded as “Far from saturation”.

On to `O=c1cc(C(F)(F)F)c2cc(Cl)c(O)cc2o1` [FL01677], for which the “LE (ligand efficiency)” value at SMYD3 (apo, native) was 0.35 (kcal^-1 mol^-1)/HA. This compound also showed a Kd at SMYD3 (apo, native) (setting [5]) of 44.4 µM. For the same compound, at SMYD3 (apo, native) (setting [6]), the kd turned out to be 0.96 s⁻¹ and the kon at 250 µM was 21600 M⁻¹ s⁻¹. For the same compound, the “XRC: success or failure” value at SMYD3 [2] is reported as “(−)”. In addition, the “Outcome of multicycle kinetic experiment” value on SMYD3 [3] is “No binding”.

In the case of `Nc1ncnc2c1ncn2[C@@H]1O[C@H](CSCC[C@H](N)C(=O)O)[C@@H](O)[C@H]1O` [SAH, S-adenosyl-homocysteine], on SMYD3 (apo, native) (setting [7]), the ka is 304000 to 3.52e+06 M⁻¹ s⁻¹ and the kd lay in the range of 0.748 to 4.92 s⁻¹. Further, on SMYD3 [4], the ka entry was “(2.7 ± 0.1) × 10^6 M^-1 s^-1” and the kd was 1.6 ± 0.9 s⁻¹. Besides, the Kd at SMYD3 [4] (read-out: derived KD) was 0.611 ± 0.002 µM.

Regarding `N#Cc1cccc(O)c1` [FL01507], on SMYD3 (apo, native), the “LE (ligand efficiency)” value is given as 0.72 (kcal^-1 mol^-1)/HA. Further, the Kd at SMYD3 (apo, native) (setting [5]) is 17.9 µM. At SMYD3 (apo, native) (setting [6]), the kd worked out at 1.3 s⁻¹ and the kon at 250 µM was 72000 M⁻¹ s⁻¹. Also, the “XRC: success or failure” value at SMYD3 [2] was “(+)”. The “Outcome of multicycle kinetic experiment” value at SMYD3 [3] is “Complex interaction”.

Consider `N#Cc1cc(Br)ccc1O` [FL01750], for which, on SMYD3 (apo, native), the “LE (ligand efficiency)” value is 0.61 (kcal^-1 mol^-1)/HA. Also, the Kd at SMYD3 (apo, native) (setting [5]) is 31.6 µM. Also, at SMYD3 (apo, native) (setting [6]), the kd is 0.93 s⁻¹ and the kon at 250 µM was found to be 29500 M⁻¹ s⁻¹. In addition, the “XRC: success or failure” value on SMYD3 [2] is reported as “(−)”. For the same compound, the “Outcome of multicycle kinetic experiment” value at SMYD3 [3] is given as “No binding”.

The term Kd denotes the free concentration of one partner at which half of the binding sites on the other are occupied at equilibrium, for simple one-to-one binding.
